This is an account of results in patent US20220313717A1, “METHODS OF TREATING CRYPTOCOCCUS INFECTIONS” (MATINAS BIOPHARMA NANOTECHNOLOGIES, INC., priority 2019, published 2022).

Data set [1] relates to Cryptococcus spp. As to conditions: cited from earlier work.
For data set [2], the target named is CYP3A4 (Homo sapiens, UniProt P08684). Conditions: cited from earlier work.
For data set [3], the target named is CYP2C9 (Homo sapiens, UniProt P11712). As to conditions: cited from earlier work.
Data set [4] in a line: Participant subjective impressions of cAMB versus prior IV AMB (qualitative scale, visual analog). Details: species or system human. Conditions: recall of prior IV therapy (6/24).
Experimental: Trial endpoints included: 1) Proportion of daily dose received and tolerated without vomiting within 30 minutes; 2) Cumulative score of nausea, vomiting, diarrhea by Common Terminology Criteria AE (CTCAE) grade scoring criteria (U.S. Department of Health and Human Services NIoH, National Cancer Institute, 2017, Common Terminology Criteria for Adverse Events (CTCAE) v 5.0); 3) Incidence of adverse events (AEs) by National Institute of Allergy and Infectious Diseases (NIAID) Division of AIDS (DAIDS) toxicity scale (version 2017) for Grade 1-5 or serious AEs (SAE) (U.S. Department of Health and Human Services NIoH, National Institute of Allergy and Infectious Diseases, Division of AIDS, 2017, Division of AIDS (DAIDS) Table for Grading the Severity of Adult and Pediatric Adverse Events, Corrected Version 2.1.); 4) Participant subjective impression(s) of cAMB by visual analog and other scales. All clinical and laboratory AEs were followed up until resolution.
Statistical analyses were primarily descriptive. The median and interquartile ranges or the number and proportions were reported where appropriate. Area under the curve (AUC) calculations were made using a linear trapezoidal method with statistical comparison by ANOVA. […]
Using a qualitative scale, we assessed participant impressions of their cAMB experience versus their prior IV AMB experience in the Phase 1A cohort.
Data set [5] relates to Cryptococcus spp. As to conditions: in vivo, cited from earlier work.

Chain of CYP3A4 (P08684 whole entry): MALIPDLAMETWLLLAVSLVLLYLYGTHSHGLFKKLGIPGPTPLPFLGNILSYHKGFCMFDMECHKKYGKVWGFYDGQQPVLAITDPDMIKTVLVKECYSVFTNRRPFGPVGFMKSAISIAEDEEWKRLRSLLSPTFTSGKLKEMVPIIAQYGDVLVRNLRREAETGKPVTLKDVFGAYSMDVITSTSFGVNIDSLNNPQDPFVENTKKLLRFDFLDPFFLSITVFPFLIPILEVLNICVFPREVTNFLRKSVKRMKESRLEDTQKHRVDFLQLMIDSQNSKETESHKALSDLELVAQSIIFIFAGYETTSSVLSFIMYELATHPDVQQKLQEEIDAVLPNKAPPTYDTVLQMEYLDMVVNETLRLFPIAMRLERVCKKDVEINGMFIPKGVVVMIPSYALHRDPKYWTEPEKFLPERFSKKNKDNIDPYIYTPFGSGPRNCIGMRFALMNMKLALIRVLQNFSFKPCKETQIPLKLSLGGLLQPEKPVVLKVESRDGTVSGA
Chain of CYP2C9 (P11712 whole entry): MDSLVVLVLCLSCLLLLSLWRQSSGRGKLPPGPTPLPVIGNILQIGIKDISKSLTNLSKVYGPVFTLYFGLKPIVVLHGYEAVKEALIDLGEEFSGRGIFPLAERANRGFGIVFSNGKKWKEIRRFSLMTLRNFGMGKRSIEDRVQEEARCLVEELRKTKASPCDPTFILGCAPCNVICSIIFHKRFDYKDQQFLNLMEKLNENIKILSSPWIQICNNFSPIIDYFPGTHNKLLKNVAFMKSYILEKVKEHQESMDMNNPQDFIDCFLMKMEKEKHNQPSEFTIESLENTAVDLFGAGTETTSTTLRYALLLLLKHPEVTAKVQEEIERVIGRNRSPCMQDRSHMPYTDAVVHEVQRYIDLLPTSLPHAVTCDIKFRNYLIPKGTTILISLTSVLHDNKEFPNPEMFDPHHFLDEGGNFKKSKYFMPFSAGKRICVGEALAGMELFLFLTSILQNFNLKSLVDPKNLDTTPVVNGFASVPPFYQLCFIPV

On to `Nc1ncccc1-c1cc(Cc2ccc(COc3ccccn3)cc2)no1` [E1210], for which the “in vitro activity against Cryptococcus spp.” value in data set [1] was “has in vitro activity against Cryptococcus spp”.
In the case of `OC(Cn1cncn1)(Cn1cncn1)c1ccc(F)cc1F` [Fluconazole, fluconazole], the CYP3A4 inhibition entry in data set [2] is on record as “moderate CYP3A4 inhibitor”. For the same compound, the CYP2C9 inhibition result in data set [3] is reported as “potent CYP2C9 inhibitor”.
Take `C[C@@H]1[C@H](O)[C@@H](C)/C=C/C=C/C=C/C=C/C=C/C=C/C=C/[C@H](O[C@@H]2O[C@H](C)[C@@H](O)[C@H](N)[C@@H]2O)C[C@@H]2O[C@](O)(C[C@@H](O)C[C@@H](O)[C@H](O)CC[C@@H](O)C[C@@H](O)CC(=O)O[C@H]1C)C[C@H](O)[C@H]2C(=O)O` [IV AMB, amphotericin B]: in data set [4], the “participants who recalled severe nausea” value amounted to 25%.
On to `OC(Cn1cnnn1)(c1ccc(F)cc1F)C(F)(F)c1ccc(-c2ccc(OCC(F)(F)F)cc2)cn1` (stereo not drawn) [VT-1129], for which the “fungicidal activity in mouse models of Cryptococcus spp. infection” value in data set [5] was “fungicidal”. The CNS penetration entry in data set [5] (mouse) is “good CNS penetration”.
